Results: patent US6743940B2, “4-aminobut-2-ynecarboxylic acid derivatives” (Ciba Specialty Chemicals Corporation, priority 2000, dated 2004)
Like-named read-outs stand apart in the source and are kept apart here.

What was measured:
Assay in all cases: Minimum Inhibitory Concentration (MIC) in the agar incorporation test
Format in all cases: cell-based
[1] = system: Aspergillus niger ATCC 6275; settings: ATCC6275, 72 h, 3 days at 28° C.
Experimental: (§1) Determination of the Minimum Inhibitory Concentration (MIC) in the Agar Incorporation Test (MIC Test) [table] Test Principle 0.3 ml of each dilution step is mixed with 15 ml of still liquid nutrient medium. After the nutrient medium has solidified, 10 μl of each of the following organism dilutions of the test strains in 0.85% NaCl solution is dotted onto the agar medium: [table] The plates are incubated for 24 hours at 37° C. (A. niger 3 days at 28° C.) and then the highest dilution (lowest concentration) of the test substance at which no more growth is observed (corresponds to the MIC) is determined.

[2] = system: Staphylococcus aureus ATCC 9144; settings: 24 hours at 37° C.
Experimental: as §1

[3] = system: Candida albicans ATCC 10231; settings: ATCC10231, Table 1, casein-soybean flour-peptone agar, 24 hours at 37° C., dilution series 1000 ppm to 10 ppm
Experimental: as §1

[4] = system: Escherichia coli NCTC 8196; settings: NCTC8196, Table 1, casein-soybean flour-peptone agar, 24 hours at 37° C., dilution series 1000 ppm to 10 ppm
Experimental: as §1

[5] = system: Pseudomonas aeruginosa CIP A-22; settings: CIPA22, Table 1, casein-soybean flour-peptone agar, 24 hours at 37° C., dilution series 1000 ppm to 10 ppm
Experimental: as §1

[6] = Table 2, MIC test, read-out: Further microbiological test results, Aspergillus niger ATCC 6275
[7] = ATCC9144, Table 2, MIC test, read-out: Further microbiological test results, Staphylococcus aureus ATCC 9144

Q: What does the source list for `CCOC(=O)C#CCNc1ccc(OC)cc1` [Compound of formula (117)]?
A: MIC [1, 6]: 500 µg/mL; MIC [2, 7]: 500 µg/mL

Q: Which results are given for `CCCCCN(CC#CC(=O)OC)c1ccccc1` [Compound of formula (110)]?
A: MIC [1, 6]: 125 µg/mL; MIC [2, 7]: 63 µg/mL

Q: With `CCCN(CC#CC(=O)OC)c1ccc(OC)cc1` [Compound of formula (111)] as the compound, how does the MIC [2, 7] read?
A: 63 µg/mL

Q: For `CCN(CC#CC(=O)OC)c1cccc(C)c1` [Compound of formula (115)], which MIC [1, 6] is on record?
A: 8 µg/mL

Q: For `CCCCCN(CC#CC(=O)OC)c1cccc(OC)c1` [Compound of formula (112)], which MIC [2, 7] is on record?
A: 63 µg/mL

Q: Which MIC [2, 7] does the source give for `CCCN(CC#CC(=O)OCC)c1cccc(OC)c1` [Compound of formula (109)] here?
A: 1000 µg/mL

Q: Which MIC [2, 7] does the source give for `CCCCN(CC#CC(=O)OC)c1cccc(C)c1` [Compound of formula (113)] here?
A: 125 µg/mL

Q: `COC(=O)CC#CCN(C)c1ccccc1` [Compound of formula (101), 4-(N-methyl-phenylamino)-but-2-yne-carboxylic Acid Methyl Ester] was tested. Which MIC ([1]; Table 1, Sabouraud 4% glucose-agar, dilution series 1000 ppm to 10 ppm, read-out: Minimum Inhibitory Concentration (MIC), Aspergillus niger ATCC 6275) did it give?
A: 62.5 µg/mL

Q: What about the MIC [3] of the same compound?
A: 62.5 µg/mL

Q: What about the MIC [4] of the same compound?
A: 125 µg/mL

Q: What about the MIC [5] of the same compound?
A: > 1000 µg/mL

Q: What about the MIC ([2]; ATCC9144, Table 1, casein-soybean flour-peptone agar, dilution series 1000 ppm to 10 ppm, read-out: Minimum Inhibitory Concentration (MIC), Staphylococcus aureus ATCC 9144) of the same compound?
A: 62.5 µg/mL

Q: Which MIC [1, 6] does the source give for `CCN(CC#CC(=O)OC)c1ccc(OC)cc1` [Compound of formula (114)] here?
A: 60 µg/mL

Q: What about the MIC [2, 7] of the same compound?
A: 60 µg/mL

Q: Which MIC [1, 6] does the source give for `COC(=O)C#CCNc1ccc(C)cc1` [Compound of formula (118)] here?
A: 125 µg/mL

Q: And the MIC [2, 7]?
A: 125 µg/mL

Q: With `CCOC(=O)C#CCNc1ccccc1` [Compound of formula (116)] as the compound, how does the MIC [1, 6] read?
A: 125 µg/mL

Q: And the MIC [2, 7]?
A: 125 µg/mL

Q: What does the source list for `CCCCN(CC#CC(=O)OC)c1ccccc1` [Compound of formula (107)]?
A: MIC [1, 6]: 63 µg/mL; MIC [2, 7]: 63 µg/mL

Q: `CCCN(CC#CC(=O)OC)c1cccc(OC)c1` [Compound of formula (108)] was tested. Which MIC [1, 6] did it give?
A: 125 µg/mL

Q: And the MIC [2, 7]?
A: 63 µg/mL

Q: Which results are given for `CCCN(CC#CC(=O)OC)c1cccc(C)c1` [Compound of formula (106)]?
A: MIC [1, 6]: 125 µg/mL; MIC [2, 7]: 125 µg/mL
